Experimental data from patent publication US8546076B2, “Mutational profile in HIV-1 GAG cleavage site correlated with phenotypic drug resistance” (Tibotec Pharmaceuticals Ltd., priority 2007, dated 2013).
Several values for one entry are separate records, joined by “and”; a condition that tells them apart may be missing. Equal values may be shown once. Read-outs that look alike come from different tables or passages of the source.

System: HIV-1
Conditions: for Change versus baseline in log10 viral load (NC = F, non-VF censored), Mean (SE) / Virologic response rate (TLOVR, non-VF censored) defined as a decrease ≧1.0 log10 in plasma viral load versus baseline / Virologic response rate (TLOVR, non-VF censored) defined as a viral load <50 HIV-1 RNA copies/mL / mean changes versus baseline in viral load (size of decrease): Week 24; for mean changes versus baseline in viral load (size of decrease): E428G and/or R452S at baseline
Experimental: Virologic response was defined as viral load ≦50 copies/mL at week 24.
GAG genotypic analysis was performed on virus isolates from subjects of pooled trials.
Virological failures were defined using the TLOVR non-virologic failure (VF)-censored algorithm in which the responses at time points after discontinuation are not imputed (i.e. left missing) for patients who drop for reasons other than virologic failures. Using this imputation, patients that drop out for reasons other than viro logic failure are not automatically considered as rebounders or non-responders.
Genotypic analyses were performed by automated population-based sequencing. Sequence data were aligned to the wildtype HIV-1/HXB2CG reference and reported as amino acid changes along GAG and PR. Genotypic mixtures (a combination of different amino acids at 1 position) were reported. Amino acids were presented with their one letter code. Mutations in the 5 PR cleavage sites in the GAG region, encompassing the amino acids 128-137 (p17/p24), 359-368 (p24/p2), 373-382 (p2/p7), 428-437 (p7/p1), and 444-453 (p1/p6), were reported.
Virologic response was defined using the TLOVR non-VF censored algorithm eliminating patients who had no chance to respond (discontinuation before Week 16). Several endpoints to assess virologic response, e.g. proportion of responders with confirmed 1.0 log10 decrease in viral load versus baseline, change in viral load from baseline (NC=F), and proportion of responders with viral load <50 or <400 HIV-1 RNA copies/mL were evaluated.
Virologic response was defined using the TLOVR, non-VF censored algorithm eliminating patients who had no chance to respond (discontinuation before Week 16), resulting in 445 subjects included in the analysis. To assess outcome, several endpoints including the primary endpoint (proportion of responders with confirmed 1.0 log10 decrease in viral load at Week 24), change in viral load from baseline at Week 24 and proportion of responders with viral load <50 HIV-1 RNA copies/mL at Week 24 were evaluated.
Only mutations present at baseline in 10 subjects of the no/non-naïve ENF group (N=327) were taken into consideration.

[1] = E428G (p7/p1) at baseline, All subjects
[2] = E428G (p7/p1) at baseline, naïve ENF
[3] = R452S (p1/p6) at baseline, All subjects
[4] = R452S (p1/p6) at baseline, naïve ENF

## darunavir/ritonavir [DRV/rtv]
[1]
  Change versus baseline in log10 viral load (NC = F, non-VF censored), Mean (SE): −1.07 (0.298) log10 HIV-1 RNA copies/mL
  Virologic response rate (TLOVR, non-VF censored) defined as a decrease ≧1.0 log10 in plasma viral load versus baseline: 9 (47.4) %
  Virologic response rate (TLOVR, non-VF censored) defined as a viral load <50 HIV-1 RNA copies/mL: 3 (15.8) %
[2]
  Change versus baseline in log10 viral load (NC = F, non-VF censored), Mean (SE): −1.72 (0.763) log10 HIV-1 RNA copies/mL
  Virologic response rate (TLOVR, non-VF censored) defined as a decrease ≧1.0 log10 in plasma viral load versus baseline: 3 (75.0) %
  Virologic response rate (TLOVR, non-VF censored) defined as a viral load <50 HIV-1 RNA copies/mL: 1 (25.0) %
E428G (p7/p1) at baseline, no/non-naïve ENF
  Change versus baseline in log10 viral load (NC = F, non-VF censored), Mean (SE): −0.89 (0.318) log10 HIV-1 RNA copies/mL
no/non-naïve ENF
  mean changes versus baseline in viral load (size of decrease): < 1.0 log10 and > 0.5 log10
Other subgroups (All, naïve ENF)
  mean changes versus baseline in viral load (size of decrease): > 1.0 log10
L449P (p1/p6) at baseline, All subjects
  Virologic response rate (TLOVR, non-VF censored) defined as a viral load <50 HIV-1 RNA copies/mL: 12 (36.4) %
L449P (p1/p6) at baseline, naïve ENF
  Virologic response rate (TLOVR, non-VF censored) defined as a viral load <50 HIV-1 RNA copies/mL: 6 (50.0) %
Overall, All subjects
  Change versus baseline in log10 viral load (NC = F, non-VF censored), Mean (SE): −1.84 (0.061) log10 HIV-1 RNA copies/mL
  Virologic response rate (TLOVR, non-VF censored) defined as a decrease ≧1.0 log10 in plasma viral load versus baseline: 315 (70.8) %
  Virologic response rate (TLOVR, non-VF censored) defined as a viral load <50 HIV-1 RNA copies/mL: 207 (46.5) %
Overall, naïve ENF
  Change versus baseline in log10 viral load (NC = F, non-VF censored), Mean (SE): −2.33 (0.109) log10 HIV-1 RNA copies/mL
  Virologic response rate (TLOVR, non-VF censored) defined as a decrease ≧1.0 log10 in plasma viral load versus baseline: 102 (86.4) %
  Virologic response rate (TLOVR, non-VF censored) defined as a viral load <50 HIV-1 RNA copies/mL: 66 (55.9) %
Overall, no/non-naïve ENF
  Change versus baseline in log10 viral load (NC = F, non-VF censored), Mean (SE): −1.67 (0.071) log10 HIV-1 RNA copies/mL
[3]
  Change versus baseline in log10 viral load (NC = F, non-VF censored), Mean (SE): −1.12 (0.293) log10 HIV-1 RNA copies/mL
  Virologic response rate (TLOVR, non-VF censored) defined as a decrease ≧1.0 log10 in plasma viral load versus baseline: 12 (48.0) %
  Virologic response rate (TLOVR, non-VF censored) defined as a viral load <50 HIV-1 RNA copies/mL: 7 (28.0) %
[4]
  Change versus baseline in log10 viral load (NC = F, non-VF censored), Mean (SE): −2.50 (0.276) log10 HIV-1 RNA copies/mL
  Virologic response rate (TLOVR, non-VF censored) defined as a decrease ≧1.0 log10 in plasma viral load versus baseline: 7 (100) %
  Virologic response rate (TLOVR, non-VF censored) defined as a viral load <50 HIV-1 RNA copies/mL: 6 (85.7) %
R452S (p1/p6) at baseline, no/non-naïve ENF
  Change versus baseline in log10 viral load (NC = F, non-VF censored), Mean (SE): −0.58 (0.312) log10 HIV-1 RNA copies/mL
S451T (p1/p6) at baseline, All subjects
  Virologic response rate (TLOVR, non-VF censored) defined as a viral load <50 HIV-1 RNA copies/mL: 4 (18.2) %
S451T (p1/p6) at baseline, naïve ENF
  Virologic response rate (TLOVR, non-VF censored) defined as a viral load <50 HIV-1 RNA copies/mL: 1 (12.5) %
Week 24, E428G at baseline, univariate analysis, N=467
  virologic response (viral load ≦50 copies/mL) relative to overall response: < 75 % of overall response
